Data set [1] deals with Moloney murine leukemia virus (MLV). To be noted: background statement; cited from earlier work.
Data set [2] has as its system HIV-1 LTR-driven β-gal reporter in Magi cells. The experiment in a line: Magi indicator cell β-galactosidase assay (HIV LTR-mediated gene expression). The conditions noted are these: Magi cells transiently transfected with siRNA; versus Scramble siRNA control. Format: cell-based. An excerpt: (§1) The ability of Pbx 1 to mediate transcription of genes of retroviruses that infect human cells was investigated using Magi indicator cells (e.g., Kimpton and Emerman, J. Virol. 66: 2232-2239, 1992). The MAGI (Multinuclear Activation of a Galactosidase Indicator) cell line was derived from parental HeLa cells by introducing genes for CD4 and an HIV-1 LTR-driven β-gal reporter with an amphotropic retrovirus vector. This cell line exploits the ability of HIV-1 tat to transactivate the expression of a β-galactosidase reporter gene driven by the HIV-LTR. […] The β-galactosidase activity was then assessed in the cultures. […] Western blot analysis of Pbx1 siRNA-transfected Magi cells confirmed that levels of Pbx1 protein were reduced in comparison to control cells transfected with firefly luciferase siRNA, which served as a negative control (FIG. 2). […] The γ-tubulin was used as the loading control.

The test system of data set [3] is HIV-1. The conditions noted are these: siRNA-transfected Magi cells; versus Scramble siRNA control. The procedure: Magi cells were transiently transfected with an siRNA targeting Pbx1 or Pin1. A Scramble siRNA was used as a negative control. Reverse transcriptase activity was then assessed.
Magi indicator cells were also used to determine the effect of HMG I proteins on the transcription of retroviral genes. Magi cells were transiently transfected with an siRNA targeting HMG I-C or HMG I/Y. A Scramble siRNA was used as a negative control. […] For the western blot analysis, cells were transiently transfected with the siRNAs targeting HMGI/Y (FIG. 9), HMG I-C (FIG. 10) or firefly luciferase (control siRNA). Magi cells were lysed 48-60 hours after transfection and analyzed by western blot using antibodies against HMGI/Y, HMG I-C or γ-tubulin proteins. The γ-tubulin levels were used as the loading controls.

Data set [4] has as its system HMG I/Y protein. Kind of data set: Western blot of HMG I/Y protein in siRNA-treated Magi cells. The conditions noted are these: Magi cells lysed 48-60 hours after transfection; versus luciferase siRNA control. Format: cell-based.
The subject of data set [5] is human immunodeficiency virus (HIV). The conditions noted are these: Chao et al., J. Biol. Chem. 2000; cited from earlier work.
Data set [6] concerns recombinant HIV. Kind of data set: Recombinant HIV assay, luciferase reporter in 293T cells. Format: cell-based, HIV-1. To be noted: 293T cells transfected with siRNA, infected with recombinant HIV after 24 hours, measured after 48 hrs; versus Scramble siRNA. The procedure: A recombinant HIV assay was used to assess the role of HMG I proteins in HIV replication. Pseudotyped recombinant HIV particles were generated by transient transfection of 293T cells using a three-plasmid expression system (FIGS. 5a and 5b).
A Scramble siRNA was used as a negative control After 24 hours, the transfected cells were infected with recombinant HIV. After 48 hrs, luciferase activity was measured.
Background: In a reporter assay the amount or activity of a reporter protein is the signal.

Data set [7] concerns HMG I-C protein. Kind of data set: Western blot of HMG I-C protein in siRNA-treated Magi cells. To be noted: Magi cells lysed 48-60 hours after transfection; versus luciferase siRNA control. The data set is classed as cell-based. In general terms: Immunoblotting shows a protein as a band on a membrane.
Data set [8] concerns Pbx1 protein. The experiment in a line: Western blot of Pbx1 protein in siRNA-transfected Magi cells. The data set is classed as cell-based. To be noted: Magi cells lysed 48-60 hours after transfection; versus firefly luciferase siRNA control.
Excerpt: as §1

For methoxy-roscovitine, the MLV transcription events entry in data set [1] is listed as “block”.

For the compound “AAGUGCCAACACCUAAGAGAC (chemistry not given here) [HMG I/Y]”, the β-gal activity entry in data set [2] is given as “inhibited”. Moreover, in data set [3], the “activity of HIV reverse transcriptase” value is given as “reduced”. In addition, in data set [4], the “levels of HMG I/Y protein” value is reported as “reduced”.

Turning to `CN1CC[C@H](c2c(O)cc(O)c3c(=O)cc(-c4ccccc4Cl)oc23)[C@H](O)C1` [flavopiridol], in data set [5], the anti-HIV activity result is recorded as “very potent”. For the same compound, the MLV transcription events entry in data set [1] was “block”.

Regarding “AAGCAGCUCAAAAGAAAGCAG (chemistry not given here) [HMG I-C]”, the β-gal activity result in data set [2] is on record as “inhibited”. Besides, in data set [3], the “activity of HIV reverse transcriptase” value is listed as “reduced”. In addition, the luciferase reporter activity entry in data set [6] was “reduced”. For the same compound, the “levels of HMG I-C protein” value in data set [7] is “reduced”.

Take `CC(C)[C@H](CO)Nc1nc(Nc2cccc(Cl)c2)c2ncn(C(C)C)c2n1` [purvalanol A]: in data set [1], the MLV transcription events entry was “block”.

On to “AAGCCUGCCUUGUUUAAUGUG (chemistry not given here) [Pbx1 siRNA]”, for which the β-gal activity result in data set [2] was “reduced”. The “levels of Pbx1 protein” value in data set [8] is on record as “reduced”. Besides, the “activity of HIV reverse transcriptase” value in data set [3] is recorded as “greatly reduced”.

(Values after patent publication US7364842B2, “Methods of identifying modulators of human retrovirus replication” (IRM, LLC, priority 2003, dated 2008).)
